Usually Ki stands for the equilibrium dissociation constant of an inhibitor or competing ligand from its target. In general, AUC(0-inf) refers to the area under the concentration-time curve extrapolated to infinity. Higher therefore signals more exposure. Usually AUC(0-t) stands for the area under the concentration-time curve up to a stated or last time point. A low value points to less exposure. A word on the Tmax: it is the time at which the peak concentration occurs. Broadly, the Cmax is the peak of the concentration-time curve.

This is an account of results in patent US9745314B2, “MDM2 inhibitors and therapeutic methods using the same” (THE REGENTS OF THE UNIVERSITY OF MICHIGAN, priority 2014, dated 2017).

Where two headings read alike, the source gives them in different places. Some results are limits rather than exact numbers.

The target in series [1] is T1, recombinant human His-tagged MDM2 protein (residues 1-118) (Homo sapiens, UniProt Q00987). The series is described as follows: Fluorescence-polarization MDM2 competitive binding assay. The following applies: for Ki: MDM2 (FP binding assay) Ki(nM), competitive FP.
Series [2] deals with T1, recombinant human His-tagged MDM2 protein (residues 1-118). The experiment in a line: biochemical.
A short description of series [3]: Oral pharmacokinetics in Sprague-Dawley rats. To be noted: rat, in vivo, 25 mg/kg oral.
Series [4] in a line: Microsomal stability, rat. To be noted: rat microsomes; read-out: Microsomal stability T1/2 (min) Rat. The class given is in vitro ADME.
Series [5] is described as follows: Microsomal stability, mouse. The following applies: mouse microsomes; read-out: Microsomal stability T1/2 (min) Mouse. The format is in vitro ADME.
A short description of series [6]: Stability of compounds in solution (UPLC). The format is physicochemical. To be noted: FIG. 1; 1:1 CH3CN/H2O, 1:1 MeOH/H2O, cell culture media. Here is the method:
Stability of Compounds in Solution
The stability of the compounds were determined in 1:1 MeOH:H2O, 1:1 CH3CN:H2O, and cell culture medium using ultra performance liquid chromatography.

In series [7] the test system is ZR-75-1. The series is described as follows: Cell growth assay (WST), ZR-75-1. The class given is cell-based. The following applies: Homo sapiens, ZR-75-1, 96 h, Breast cancer, p53 wild-type, 4 days, read-out: Cell Growth Inhibition (IC50) ZR-75-1. The method, then: Cells were seeded in 96-well flat bottom cell culture plates at a density of 2-3×10^3 cells/well with compounds and incubated for 4 days. […] 92037, USA).

Series [8] relates to SJSA-1 xenograft tumors. The experiment in a line: In vivo efficacy in SJSA-1 xenograft model. The following applies: for anti-tumor activity in mice bearing SJSA-1 xenograft tumors (in words): FIG. 2B. Also on record: species or system C.B-17 SCID mice. Here is the method: In Vivo Efficacy Studies Using SJSA-Xenograft Models
SJSA-1 (osteosarcoma) tumor cells were harvested with Trypsin (0.05%)-EDTA (0.53 mM) (GIBCO™, Invitrogen Corp.), growth medium was added, and the cells were placed on ice. A cell sample was mixed 1:1 with Trypan Blue (GIBCO™, Invitrogen Corp.) and counted on a hemocytometer to determine the number of live/dead cells. Cells were washed once with 1×PBS (GIBCO™, Invitrogen Corp.) and resuspended in PBS. For Matrigel injections, after washing in PBS, cells are resuspended in an ice cold mixture of 1:1 PBS and Matrigel (BD Biosciences, Invitrogen Corp.) for a final Matrigel protein concentration of 5 mg/ml. SJSA-1 tumors were inoculated into C.B-17 SCID mice at 5×10^6 cells in 0.1 ml with Matrigel. Cells were injected s.c. into the flank region of each mouse using a 27 gauge needle.
The size of tumors growing in the mice was measured in two dimensions using calipers. Tumor volume (mm^3)=(A×B^2)/2 where A and B are the tumor length and width (in mm), respectively. During treatment, tumor volume and body weight was measured three times a week. After the treatment was stopped, tumor volume and body weight was measured at least once a week. Mice were kept for an additional 60 days for further observation of tumor growth and toxicity. The anti-tumor activity of compound No. 8 (administered via oral gavage) at different doses and according to different dosing schedules, including weekly for 3 weeks (qw*3 wks), every other day for 3 weeks, daily for 3 days out of a week for 3 weeks (qd1-3/w*3 wks), and daily for 2 weeks (qd*14 d), is shown in FIG. 3.

Series [9] is described as follows: Microsomal stability, dog. The class given is in vitro ADME. To be noted: dog microsomes; read-out: Microsomal stability T1/2 (min) Dog.
Series [10] is described as follows: Microsomal stability, human. The class given is in vitro ADME. To be noted: human microsomes; read-out: Microsomal stability T1/2 (min) Human.
Series [11] concerns HCT116 p53 deleted (HCT116 p53−/−). The experiment in a line: Cell growth assay (WST-8), HCT116 p53 deleted. The class given is cell-based. To be noted: Homo sapiens, HCT-116, 96 h, 4 days. A general note: Formazan colour is commonly taken as a measure of viable cells.
Series [12] concerns SJSA-1 cells. The series is described as follows: Cell growth assay (WST-8), SJSA-1. To be noted: for IC50: Homo sapiens, SJSA-1, 96 h, 4 days. The class given is cell-based, human.
For series [13], the system named is HCT116 p53 WT. The series is described as follows: Cell growth assay (WST-8), HCT116 p53 WT. The class given is cell-based. To be noted: Homo sapiens, HCT-116, 96 h, 4 days.
The test system of series [14] is RS4; 11. The experiment in a line: Cell growth assay (WST), RS4;11. The format is cell-based. The following applies: Homo sapiens, RS4-11, 96 h, Leukemia, p53 wild-type, 4 days, read-out: Cell Growth Inhibition (IC50) RS4.
Series [15] has as its system PC3. The experiment in a line: Cell growth assay (WST), PC3. The format is cell-based. The following applies: Homo sapiens, PC-3, 96 h, Prostate cancer, p53 null, 4 days, read-out: Cell Growth Inhibition (IC50) PC3.
Series [16] concerns Saos2. The experiment in a line: Cell growth assay (WST), Saos2. The format is cell-based. The following applies: Homo sapiens, SAOS-2, 96 h, Osteosarcoma, p53 null, 4 days, read-out: Cell Growth Inhibition (IC50) Saos2.
Series [17] has as its system LNCaP. The experiment in a line: Cell growth assay (WST), LNCaP. The format is cell-based. The following applies: Homo sapiens, 96 h, Prostate cancer, p53 wild-type, 4 days, read-out: Cell Growth Inhibition (IC50) LNCaP.
Where [18] appears, read: WST-8, read-out: Cell Growth Inhibition IC50 (μM) HCT116 p53 deleted.
Setting [19] is: WST-8, read-out: Cell Growth Inhibition IC50 (μM) SJSA-1.
[20] abbreviates: WST-8, read-out: Cell Growth Inhibition IC50 (μM) HCT116 p53 WT.
[21] abbreviates: Colon cancer, p53 knock-out, WST assay, read-out: Cell Growth Inhibition (IC50) HCT116 p53−/−.
Where [22] appears, read: Osteosarcoma, p53 wild-type, WST assay, read-out: Cell Growth Inhibition (IC50) SJSA-1.
Where [23] appears, read: Colon cancer, p53 wild-type, WST assay, read-out: Cell Growth Inhibition (IC50) HCT116.

Regarding `CC1(O)CCC2(CC1)N[C@@H](C(=O)NC13CCC(C(=O)O)(CC1)CC3)[C@H](c1cccc(Cl)c1F)[C@]21C(=O)Nc2cc(Cl)ccc21` (some centres unmarked) [Cpd No. 6], in [1], the Ki was less than 1 nM. Moreover, the IC50 in series [2] stood at 7.3 nM.

As for `CN1[C@@H](C(=O)NC23CCC(C(=O)O)(CC2)CC3)[C@H](c2cccc(Cl)c2F)[C@]2(C(=O)Nc3cc(Cl)ccc32)C12CCCCC2` [Cpd No. 7], the AUC(0-inf) in series [3] was 35400 ± 15500 ng·h/mL. This compound also returned an AUC(0-t) in series [3] of 35200 ± 15200 ng·h/mL. Also, in series [3], the Tmax came to 4 h. In addition, the half-life was 233 ± 61.2 min in series [3]; more than 60 min in series [4]; more than 60 min in series [5]; more than 60 min in [9]; more than 60 min in [10]. Besides, in [6], the “stability in solutions (in words)” value is listed as “stable in solutions”. Moreover, in series [7], the IC50 turned out to be 713 ± 165 nM. For the same compound, the “binding affinity to MDM2 (in words)” value in [1] is listed as “high binding affinity”. In series [8], the “anti-tumor activity in mice bearing SJSA-1 xenograft tumors (in words)” value (“anti-tumor activity” below) was “complete and persistent tumor regression”.

On to `O=C(NC12CC(C(=O)O)(C1)C2)[C@@H]1NC2(CCCCC2)[C@@]2(C(=O)Nc3cc(Cl)ccc32)[C@H]1c1cccc(Cl)c1F` [Cpd No. 1], for which the IC50 in series [11] (setting [18]) turned out to be 12.6 µM; in series [12] (setting [19]), 0.48 µM; in [13] (setting [20]), 3.7 µM; in series [2], 5.4 nM. In addition, the “cell growth inhibition in SJSA-1 cells (in words)” value (“cell growth inhibition” for short) in series [12] is listed as “reduced potency”. In addition, the “binding affinity to MDM2 (in words)” value in [1] is reported as “high binding affinity”.

For `CC1(O)CCC2(CC1)N[C@@H](C(=O)NC13CCC(C(=O)O)(CC1)CC3)[C@H](c1cccc(Cl)c1F)[C@]21C(=O)Nc2cc(Cl)ccc21` (some centres unmarked) [Cpd No. 5], the Ki in series [1] was 30 nM. The IC50 in series [2] amounted to 131 nM.

In [3], `O=C(NC12CCC(C(=O)O)(CC1)CC2)[C@@H]1NC2(CCCCC2)[C@@]2(C(=O)Nc3cc(Cl)ccc32)[C@H]1c1cccc(Cl)c1F` [Cpd No. 2] came in with an AUC(0-inf) of 74300 ± 5260 ng·h/mL. In [3], the AUC(0-t) amounted to 73600 ± 5020 ng·h/mL. This compound also gave a Cmax in series [3] of 8230 ± 278 ng/mL. For the same compound, the Tmax in series [3] amounted to 3.33 ± 1.15 h. For the same compound, the half-life in series [3] is 257 ± 22.3 min; in series [4], more than 60 min; in series [5], more than 60 min; in series [9], more than 60 min; in series [10], more than 60 min. Besides, the IC50 in [11] (setting [18]) came to 14 ± 2 µM; in series [11] (setting [21]) it was 14 ± 2 µM; in [14], 62 ± 26 nM; in series [15] it was 12.3 ± 2.5 µM; in series [7] it was 677 ± 252 nM; in series [12] (setting [19]), 0.089 ± 0.033 µM. The IC50 amounted to 0.089 ± 0.033 µM in series [12] (setting [22]); 26.7 ± 5.1 µM in series [16]; 0.137 ± 0.031 µM in [13] (setting [20]); 0.137 ± 0.031 µM in series [13] (setting [23]); 36 ± 19 nM in series [17]; 5.2 nM in [2]. The “cell growth inhibition” value in series [12] is recorded as “potent cell growth inhibition activity”. For the same compound, the “binding affinity to MDM2 (in words)” value in series [1] is “high binding affinity”. For the same compound, the “anti-tumor activity” value in series [8] is reported as “only modest anti-tumor activity”.

On to `O=C(NC12CCC(C(=O)O)(CC1)CC2)[C@@H]1NC2(CCC(F)(F)CC2)[C@@]2(C(=O)Nc3cc(Cl)ccc32)[C@H]1c1cccc(Cl)c1F` [Cpd No. 3], for which the IC50 was 0.165 µM in [12] (setting [19]) and 8.8 nM in series [2]. Besides, in series [1], the Ki was less than 1 nM.

With `CN1[C@@H](C(=O)NC23CCC(C(N)=O)(CC2)CC3)[C@H](c2cccc(Cl)c2F)[C@]2(C(=O)Nc3cc(Cl)ccc32)C12CCCCC2` [Cpd No. 9], the IC50 in series [11] (setting [18]) was found to be 9 ± 1 µM; in series [12] (setting [19]), 0.173 ± 0.031 µM; in series [13] (setting [20]), 0.266 ± 0.127 µM; in series [2], 5.2 nM. Moreover, the Ki in [1] was less than 1 nM.

On to `O=C(O)c1ccc(NC(=O)[C@@H]2NC3(CCCCC3)[C@@]3(C(=O)Nc4cc(Cl)ccc43)[C@H]2c2cccc(Cl)c2F)cc1` [AA-MI-061, reference compound], for which the “cell growth inhibition” value in series [12] is recorded as “potent cell growth inhibition”. Also, in [1], the “binding affinity to MDM2 (in words)” value was “high binding affinity”. In series [8] (100 mg/kg, once, daily dosing, SCID mice bearing SJSA-1 xenografts (FIG. 2A)), this compound displayed a tumor regression of 90%.

In turn, `CCN1[C@@H](C(=O)NC23CCC(C(=O)O)(CC2)CC3)[C@H](c2cccc(Cl)c2F)[C@]2(C(=O)Nc3cc(Cl)ccc32)C12CCCCC2` [Cpd No. 8] had an AUC(0-inf) in [3] of 39500 ± 8520 ng·h/mL. The compound further showed an AUC(0-t) in series [3] of 39100 ± 8470 ng·h/mL. In [3], the Tmax stood at 4 h. Moreover, the half-life in [3] was 277 ± 81 min; in series [4], more than 60 min; in series [5] it was more than 60 min; in series [9], more than 60 min; in [10] it was more than 60 min. The IC50 in [11] (setting [18]) was determined as 8 ± 1 µM; in series [11] (setting [21]) it was 8 ± 1 µM; in series [15], 22 ± 7.2 µM; in [7], 462 ± 36 nM; in series [12] (setting [19]) it was 0.06 ± 0.022 µM; in series [12] (setting [22]) it was 0.06 ± 0.022 µM. Also, the IC50 in series [16] amounted to 22.7 ± 4.7 µM; in [13] (setting [20]), 0.104 ± 0.036 µM; in series [13] (setting [23]), 0.104 ± 0.036 µM; in [17], 18 ± 13 nM. Also, the “stability in solutions (in words)” value in series [6] is “stable in solutions”. Further, the “binding affinity to MDM2 (in words)” value in series [1] is “high binding affinity”. Besides, the “anti-tumor activity” value in [8] is “complete and persistent tumor regression”.

In the case of `CS(=O)(=O)NC(=O)C12CCC(NC(=O)[C@@H]3NC4(CCCCC4)[C@@]4(C(=O)Nc5cc(Cl)ccc54)[C@H]3c3cccc(Cl)c3F)(CC1)CC2` [Cpd No. 4], the results for the IC50 in series [12] (setting [19]) and in series [2] were 0.373 µM and 7.9 nM, respectively.
